Values after ≈ are worked out from the molar mass of the structure shown.
Assays:
Assay type in all cases: functional
Haemophilus influenzae [1] = assay: Antimicrobial activity against ampicillin resistant serotype-e Haemophilus influenzae isolate BB1053 harboring with plasmid pB1000 bearing beta-lactamase ROB-1 by broth microdilution method
Haemophilus influenzae [2] = assay: Antimicrobial activity against ampicillin resistant nontypeable Haemophilus influenzae isolate BB1051 harboring with plasmid pB1000 bearing beta-lactamase ROB-1 by broth microdilution method
Haemophilus influenzae [3] = assay: Antimicrobial activity against Haemophilus influenzae Rd KW20 harboring with plasmid pB1000 bearing beta-lactamase ROB-1 by broth microdilution method
Haemophilus influenzae [4] = assay: Antimicrobial activity against ampicillin resistant nontypeable Haemophilus influenzae isolate BB1052 harboring with plasmid pB1000 bearing beta-lactamase ROB-1 by broth microdilution method
Haemophilus influenzae [5] = assay: Antimicrobial activity against ampicillin resistant nontypeable Haemophilus influenzae isolate BB1050 harboring with plasmid pB1000 bearing beta-lactamase ROB-1 by broth microdilution method
Haemophilus influenzae [6] = assay: Antimicrobial activity against Haemophilus influenzae Rd KW20 by broth microdilution method

Compound: C=CC1=C(C(=O)O)N2C(=O)[C@@H](NC(=O)/C(=N\OCC(=O)O)c3csc(N)n3)[C@H]2SC1 [CEFIXIME]
- MIC (Haemophilus influenzae [1]): 0.06 µg/mL (≈ 0.132 µM)
- MIC (Haemophilus influenzae [2]): 0.06 µg/mL (≈ 0.132 µM)
- MIC (Haemophilus influenzae [3]): 0.06 µg/mL (≈ 0.132 µM)
- MIC (Haemophilus influenzae [4]): ≤ 0.03 µg/mL
- MIC (Haemophilus influenzae [5]): 0.06 µg/mL (≈ 0.132 µM)
- MIC (Haemophilus influenzae [6]): ≤ 0.03 µg/mL

Compound: C[C@H]1[C@H](NC(=O)/C(=N\OC(C)(C)C(=O)O)c2csc(N)n2)C(=O)N1S(=O)(=O)O [AZTREONAM]
- MIC (Haemophilus influenzae [1]): ≤ 0.12 µg/mL
- MIC (Haemophilus influenzae [2]): ≤ 0.12 µg/mL
- MIC (Haemophilus influenzae [3]): ≤ 0.12 µg/mL
- MIC (Haemophilus influenzae [4]): ≤ 0.12 µg/mL
- MIC (Haemophilus influenzae [5]): ≤ 0.12 µg/mL
- MIC (Haemophilus influenzae [6]): ≤ 0.12 µg/mL

Compound: CO/N=C(\C(=O)N[C@@H]1C(=O)N2C(C(=O)O)=C(COC(C)=O)CS[C@H]12)c1csc(N)n1 [CEFOTAXIME]
- MIC (Haemophilus influenzae [1]): ≤ 0.03 µg/mL
- MIC (Haemophilus influenzae [2]): ≤ 0.03 µg/mL
- MIC (Haemophilus influenzae [4]): ≤ 0.03 µg/mL
- MIC (Haemophilus influenzae [5]): 0.06 µg/mL (≈ 0.132 µM)
- MIC (Haemophilus influenzae [6]): ≤ 0.03 µg/mL

Compound: CO/N=C(\C(=O)N[C@@H]1C(=O)N2C(C(=O)O)=C(COC(N)=O)CS[C@H]12)c1ccco1 [CEFUROXIME]
- MIC (Haemophilus influenzae [1]): 4 µg/mL (≈ 9.43 µM)
- MIC (Haemophilus influenzae [2]): 4 µg/mL (≈ 9.43 µM)
- MIC (Haemophilus influenzae [3]): 4 µg/mL (≈ 9.43 µM)
- MIC (Haemophilus influenzae [4]): 4 µg/mL (≈ 9.43 µM)
- MIC (Haemophilus influenzae [5]): 4 µg/mL (≈ 9.43 µM)
- MIC (Haemophilus influenzae [6]): 0.5 µg/mL (≈ 1.18 µM)

Compound: CC1(C)S[C@@H]2[C@H](NC(=O)Cc3ccccc3)C(=O)N2[C@H]1C(=O)O [PENICILLIN G]
- MIC (Haemophilus influenzae [1]): > 256 µg/mL
- MIC (Haemophilus influenzae [2]): > 256 µg/mL
- MIC (Haemophilus influenzae [3]): > 256 µg/mL
- MIC (Haemophilus influenzae [4]): > 256 µg/mL
- MIC (Haemophilus influenzae [5]): > 256 µg/mL
- MIC (Haemophilus influenzae [6]): 0.5 µg/mL (≈ 1.5 µM)

Compound: CC1(C)S[C@@H]2[C@H](NC(=O)[C@H](N)c3ccc(O)cc3)C(=O)N2[C@H]1C(=O)O [AMOXICILLIN]
- MIC (Haemophilus influenzae [1]): > 64 µg/mL
- MIC (Haemophilus influenzae [2]): > 64 µg/mL
- MIC (Haemophilus influenzae [3]): > 64 µg/mL
- MIC (Haemophilus influenzae [4]): > 64 µg/mL
- MIC (Haemophilus influenzae [5]): > 64 µg/mL
- MIC (Haemophilus influenzae [6]): ≤ 0.5 µg/mL

Compound: CC1(C)S[C@@H]2[C@H](NC(=O)[C@H](N)c3ccccc3)C(=O)N2[C@H]1C(=O)O [AMPICILLIN]
- MIC (Haemophilus influenzae [1]): > 128 µg/mL
- MIC (Haemophilus influenzae [2]): > 128 µg/mL
- MIC (Haemophilus influenzae [3]): > 128 µg/mL
- MIC (Haemophilus influenzae [4]): > 128 µg/mL
- MIC (Haemophilus influenzae [5]): > 128 µg/mL
- MIC (Haemophilus influenzae [6]): ≤ 0.25 µg/mL

Compound: C[C@@H](O)[C@H]1C(=O)N2C(C(=O)O)=C(SCCNC=N)C[C@H]12 [IMIPENEM ANHYDROUS]
- MIC (Haemophilus influenzae [1]): 0.5 µg/mL (≈ 1.67 µM)
- MIC (Haemophilus influenzae [2]): 0.5 µg/mL (≈ 1.67 µM)
- MIC (Haemophilus influenzae [3]): 1 µg/mL (≈ 3.34 µM)
- MIC (Haemophilus influenzae [4]): 1 µg/mL (≈ 3.34 µM)
- MIC (Haemophilus influenzae [5]): 2 µg/mL (≈ 6.68 µM)
- MIC (Haemophilus influenzae [6]): 0.5 µg/mL (≈ 1.67 µM)

Compound: N[C@@H](C(=O)N[C@@H]1C(=O)N2C(C(=O)O)=C(Cl)CS[C@H]12)c1ccccc1 [CEFACLOR ANHYDROUS]
- MIC (Haemophilus influenzae [1]): 64 µg/mL (≈ 174 µM)
- MIC (Haemophilus influenzae [2]): 64 µg/mL (≈ 174 µM)
- MIC (Haemophilus influenzae [3]): 64 µg/mL (≈ 174 µM)
- MIC (Haemophilus influenzae [4]): 64 µg/mL (≈ 174 µM)
- MIC (Haemophilus influenzae [5]): 64 µg/mL (≈ 174 µM)
- MIC (Haemophilus influenzae [6]): 1 µg/mL (≈ 2.72 µM)

From ChEMBL document CHEMBL1255399, “Haemophilus influenzae clinical isolates with plasmid pB1000 bearing blaROB-1: fitness cost and interspecies dissemination” (2010)
